From US20250127774A1, “COMPOUNDS FOR LABELLING NUCLEIC ACID AND USES THEREOF” (THE ROYAL INSTITUTION FOR THE ADVANCEMENT OF …, priority 2022, published 2025) come the findings set out here.

For series [1], the system named is vinyl-modified RNA in Hela cells. As to the kind of experiment: Metabolic RNA labeling. Type of series: cell-based. The following applies: VU 2.5 mM 24 h, PINK 100 μM 5 h; diminished by RNase A/T1. The procedure: The labeling approach was extended to vinyl-modified RNA. Hela cells were seeded in ibidi® 8-well plates (5.000 cells per well) and allowed to settle overnight. Cells were then incubated with 5-vinyl uridine (VU, 2.5 mM) for 24 h. After 19 h, PINK (100 μM final concentration) was added for 5 h. […]. Cells were fixed and optionally treated with RNase A/T1 mix (100 μg/mL RNase A; 250 U/mL RNase T1). Total cellular DNA was counterstained with Hoechst 33342 (5 μg/mL). Images were acquired on confocal microscopes under 20× (a) or 63× (b) magnification (FIG. 13).
Metabolic RNA Labeling. Hela cells were seeded in μ-slide 8-well chambers (ibidi®), cat-#: 80826) at a density of 2.0×10^4 cells per mL (5.000 cells per well) and allowed to settle overnight. Cells were aspirated and 5-vinyl uridine (VU, 2.5 mM, 0.1% DMSO) was added. Cells were incubated for 19 h, at which point PINK (100 μM; 0.2% DMSO final concentrations) was added. After additional 5 h, cells were aspirated, washed with PBS, and fixed with 3.7% PFA in PBS for 15 min. Cells were quenched with 50 mM glycine/NH4Cl for 5 min, washed with PBS, and permeabilized twice with 0.2% Triton X-100 in PBS for 5 min each followed by washing with PBS, twice 100 mM NaOAc buffer (pH 5.2), 10% DMSO in PBS, and PBS for 5 min each. […]

The next series is described as follows: PINK stability test. Type of series: physicochemical. Conditions: 20 μM PINK, 1 mM b.p. CT-DNA, PBS pH 7.4 (10% DMSO). The procedure:
B) Fluorescence changes (excitation: 500 nm, emission: 590 nm; 515 nm cutoff filter) of 20 μM PINK in the presence of 1 mM b.p. CT-DNA (50 eq) in PBS pH 7.4 (10% DMSO) followed by addition of 5-norbornene-2-methanol (2 mM, 100 eq).
PINK Stability Test. Fluorescence changes (excitation: 500 nm, emission: 590 nm; 515 nm cutoff filter) of 20 μM PINK were monitored in the presence of 1 mM base pairs of calf thymus (CT) DNA (50 eq) in PBS pH 7.4 (10% DMSO) followed by addition of 5-norbornene-2-methanol (2 mM, 100 eq). Measurements were conducted on a SpectraMax M5 plate reader (Molecular Devices, Sunnyvale, CA, USA) in 1 cm path-length quartz cuvettes.

The subject of the next series is HeLa and U2OS cells. The series can be described thus: Resazurin assay, toxicity evaluation of PINK. The series is classed as cell-based. The following applies: low micromolar concentrations of PINK (0-12.5 μM), 24 and 72 h. The procedure:
Cellular respiratory activity was evaluated by measuring the fluorescence emission after addition of resazurin ([…]).
Resazurin Assay. HeLa or U2OS cells were seeded in 96-well plates at a density of 7,500 cells per well and incubated overnight. The supernatant was removed and 100 μL fresh media containing PINK (0-12.5 μM; 0.1% DMSO) was added. Cells were grown for 24 or 72 h, at which point 10 μL resazurin (880 μM in PBS; final concentration: 80 μM) was added. After incubation for 3 h, the fluorescence emission at 590 nm (excitation 560 nm; cut-off: 575 nm) was measured using a SpectraMax M5 plate reader (Molecular Devices, Sunnyvale, CA, USA). LC50 values were determined from two independent replicates.

The nature of series [2]: Photophysical measurements (quantum yield) of PINK and PINK-VdU-ox. Type of series: physicochemical. The following applies: excitation 488 nm, Rhodamine 6G standard; PINK in aqueous and aprotic solvents, 6 depending on the solvent used. The procedure:
PINK (4) undergoes a highly fluorogenic and regioselective IEDDA reaction with VdU (5) to give “PINK-VdU-ox” (6) as a single isomer in a 76% isolated yield after 7d at 60° C. (Scheme 1). The slow rate of this non-templated reaction (Kapp=0.01 M^−1 s^−1, FIG. 5) is due to the combination of an unstrained terminal alkene and unactivated tetrazine.^[49] Over the course of the reaction, a ˜100-fold increase in fluorescence was observed (FIG. 3, c). With a quantum yield (φF)<0.2%, PINK (4) is essentially non-fluorescent in both aqueous and aprotic solvents (FIG. 6).
Highly viscous solvents, including glycerol and polyethylene glycol (PEG 200) induced higher fluorescence of 6, likely by restricting bond rotation and thus suppressing formation of a non-emissive, twisted intramolecular charge transfer (TICT) state.^[50]
Photophysical Measurements. Stock solutions (1-10 mM) of investigated compounds were prepared in DMSO and stored at −20° C. DMSO concentrations were less than 1% after dilution into the respective solvent/aqueous buffer. Measurements were collected on a SpectraMax M5 plate reader (Molecular Devices, Sunnyvale, CA, USA) in 1 cm path-length quartz cuvettes. Quantum yields were obtained by excitation at 488 nm using Rhodamine 6G ((=0.94) in EtOH (n=1.3624) as a fluorescent standard.^[1] Quantum yields were calculated using the equation I: […]

Another series deals with C57BL/6J mice. As to the kind of experiment: 5-VdU incorporation in rapidly proliferating cells in vivo. Conditions: 500 mg/kg 5-VdU i.p. on two subsequent days. The procedure: 5-VdU incorporation in rapidly proliferating cells in vivo. C57BL/6J mice were either injected with 200 μl 10% DMSO in 1× sterile PBS as a vehicle or 500 mg/kg 5-VdU i.p. on two subsequent days and then sacrificed. Experimental group size was n=6. (A) Bone marrow was explanted, fixed, permeabilized and stained with PINK for 4 h at RT. Nuclei were counterstained with Hoechst33342. A strong nuclear signal can be observed in the PINK treated sample when compared to the controls. (B) Small intestine and (C) spleen tissue was subjected to paraffin embedding and the slides where then stained with PINK for 4 h at RT. Nuclei were counterstained with Hoechst33342. Specific nuclear signals are visible in the PINK treated sample when compared to the controls. […] These cells can be stained with PINK in FFPE sections=in vivo DNA replication/proliferation reporter.

Regarding `Cc1nnc(-c2ccc3cc4ccc(N(C)C)cc4nc3c2)nn1` [PINK], in series [1], the “fluorescent signal of live-cell metabolic RNA labeling” value was “strong fluorescent signal”. For the same molecule, the “degradation of PINK on extended incubation with unmodified DNA” value in “PINK stability test” is given as “little-to-no degradation”. Further, the “toxicity to cells (cellular respiratory activity, resazurin)” value in the series with HeLa and U2OS cells is on record as “not toxic to cells even at longer incubation times”. In series [2], the “quantum yield (φF)” value is < 0.2%.
For the molecule `C=Cc1cn([C@H]2C[C@H](O)[C@@H](CO)O2)c(=O)[nH]c1=O` [VdU, 5-vinyl-2′-deoxyuridine], in the series on C57BL/6J mice, the “incorporation into rapidly dividing cells (bone marrow, small intestine, spleen; PINK staining)” value was “incorporates into rapidly dividing cells in vivo” and the toxicity to mice entry is recorded as “non-toxic to mice at high concentrations”.
